# Article PMC4046646 (Molecular psychiatry, 2013)
# Key:
# LeuT [1] = biological target: LeuT (Aquifex aeolicus, UniProt O67854); assay: DEER spectroscopy; format: binding; settings: 200 mM NaCl; 4-fold molar excess of Leu over LeuT
# LeuT [2] = biological target: LeuT (Aquifex aeolicus, UniProt O67854, A289M, form not given); assay: DEER spectroscopy; format: binding; settings: 200 mM NaCl; 4-fold molar excess of Leu over LeuT
smiles,measurement,setting,value
CC(C)C[C@H](N)C(=O)O [Leu],"DEER spectroscopy (Q-band, 83 K), ligand-induced conformational change",LeuT [1],Subsequent Leu binding resets the closed EL4 conformation in the occluded conformation of the transporter
same,"DEER spectroscopy (Q-band, 83 K), ligand-induced conformational change",LeuT [2],LeuT A289M with Na^+ and Leu bound in the vestibule has a destabilized bound structure
